Measured values taken from paper PMC5063576, “High Potency VEGFRs/MET/FMS Triple Blockade by TAS-115 Concomitantly Suppresses Tumor Progression and Bone Destruction in Tumor-Induced Bone Disease Model with Lung Carcinoma Cells” (PLoS ONE, 2016).

How the values were obtained:
MET = MET (Homo sapiens, UniProt P08581); experiment: In vitro kinase assay, MET; assay type: biochemical; settings: assay as described previously [16]
Description: (§1) Enzyme inhibition studies were performed using LANCE® Ultra TR-FRET assay technology. Briefly, 0.03 μg/mL dephospho-rhFMS and 100 nM ULightTM-poly GT (4:1) (PerkinElmer) were mixed and incubated for 40 min at 25°C in 10 μL of reaction mixture containing 100 μM ATP, 15 mM tris (hydroxymethyl) aminomethane (Tris (pH 7.5)), 0.01% (v/v) Tween 20, 5 mM MgCl2, 2 mM dithiothreitol and various concentrations of the test compound. […] By referring to the TR-FRET signals of positive (no inhibitor) and negative (EDTA was added before the reaction was started) control wells, the percent inhibition of each well was calculated and the half-maximal inhibitory concentration (IC50) value was determined using a four-parameter sigmoidal equation. The assay of MET and VEGFR2 kinase activity was performed as described previously.

VEGFR2 = VEGFR2 (Homo sapiens, UniProt P35968); experiment: In vitro kinase assay, VEGFR2; assay type: biochemical; settings: assay as described previously [16]
Chain of VEGFR2 (P35968 20-1356, species assumed): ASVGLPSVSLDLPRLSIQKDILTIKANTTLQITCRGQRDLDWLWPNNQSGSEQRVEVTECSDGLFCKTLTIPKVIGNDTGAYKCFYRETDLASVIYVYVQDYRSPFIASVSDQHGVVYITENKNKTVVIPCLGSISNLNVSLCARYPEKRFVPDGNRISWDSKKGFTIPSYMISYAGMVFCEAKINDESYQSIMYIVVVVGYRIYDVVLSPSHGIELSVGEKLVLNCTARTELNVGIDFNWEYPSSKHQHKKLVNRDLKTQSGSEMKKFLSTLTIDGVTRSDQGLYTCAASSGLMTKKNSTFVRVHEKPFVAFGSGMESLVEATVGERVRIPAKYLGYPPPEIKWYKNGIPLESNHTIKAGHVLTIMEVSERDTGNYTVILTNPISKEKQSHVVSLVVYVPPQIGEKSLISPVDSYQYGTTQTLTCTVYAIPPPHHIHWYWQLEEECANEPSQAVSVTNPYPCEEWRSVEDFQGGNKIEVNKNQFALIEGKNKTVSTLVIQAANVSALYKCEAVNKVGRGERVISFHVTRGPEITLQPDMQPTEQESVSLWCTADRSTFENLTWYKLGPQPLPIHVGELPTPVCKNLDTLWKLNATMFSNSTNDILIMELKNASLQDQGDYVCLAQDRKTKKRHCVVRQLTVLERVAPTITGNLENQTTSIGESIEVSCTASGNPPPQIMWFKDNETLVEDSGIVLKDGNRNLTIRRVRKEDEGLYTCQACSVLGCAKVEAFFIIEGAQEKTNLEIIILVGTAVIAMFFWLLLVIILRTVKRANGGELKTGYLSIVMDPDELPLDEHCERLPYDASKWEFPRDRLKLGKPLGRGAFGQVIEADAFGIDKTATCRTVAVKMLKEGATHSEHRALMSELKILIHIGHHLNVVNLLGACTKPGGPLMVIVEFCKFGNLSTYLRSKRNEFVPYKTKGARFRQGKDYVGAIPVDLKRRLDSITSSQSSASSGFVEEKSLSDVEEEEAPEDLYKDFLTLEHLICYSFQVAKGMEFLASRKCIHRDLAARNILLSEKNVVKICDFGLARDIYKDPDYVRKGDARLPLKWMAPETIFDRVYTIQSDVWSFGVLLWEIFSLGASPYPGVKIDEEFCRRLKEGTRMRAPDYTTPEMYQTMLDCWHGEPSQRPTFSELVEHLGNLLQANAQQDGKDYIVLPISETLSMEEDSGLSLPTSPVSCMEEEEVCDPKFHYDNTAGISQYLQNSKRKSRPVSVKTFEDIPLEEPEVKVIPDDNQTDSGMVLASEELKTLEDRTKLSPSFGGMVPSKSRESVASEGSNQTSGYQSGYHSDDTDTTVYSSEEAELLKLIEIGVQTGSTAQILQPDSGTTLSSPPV
Description: as §1

A549-Luc-BM1 cells = experiment: Proliferation of A549-Luc-BM1 cells (CellTiter-Glo); assay type: cell-based; settings: Homo sapiens, 72 hr post drug addition, read-out: 50% growth inhibitory concentration (GI50) for A549-Luc-BM1 cells
Description: Supplementary file pone.0164830.s002.tif: S2 Fig The effect of TAS-115 on the proliferation of A549-Luc-BM1 cells. A549-Luc-BM1 cells were seeded on 96 well plates at a density of 10^3 cells/well in RPMI1640 containing 10% FBS. […] At 72 hr post drug addition, cell viability was determined using CellTiter-Glo^TM. The 50% growth inhibition (GI50) values were determined using SAS version 9.2. (TIF) Click here for additional data file.

[1] = test system: A549-Luc-BM1-implanted tibia; experiment: Bone morphometrical analyses by micro-CT; assay type: in vivo, BALB/c nude mice; settings: micro-CT after 4 weeks dosing; TAS-115 200, cabozantinib 15, sunitinib 40, crizotinib 100 mg/kg oral; vs control
Description: On day 29, the mice were euthanized by cervical dislocation under isoflurane anesthesia, and subsequently the A549-Luc-BM1-implanted tibia was removed and was fixed in 4% paraformaldehyde solution. Micro-CT imaging was performed by using Rm_CT2 (Rigaku corporation, Tokyo, Japan) with the following parameters: 90 kV, 160 μA, 3 min exposure, 10 mm field of view (20 μm voxel size). After scanning, 3D reconstruction was performed to produce a series of cross-sectional images by using specific software (3D Viewer Version 3.00.01, Rigaku corporation). In addition, bone mineral density (BMD) and 3D morphometrical primary parameters, including total volume (TV) and bone volume (BV), were calculated by using bone microstructure software (TRI/3D-BON-FCS64, Ratoc System Engineering, Tokyo, Japan). Volumetric BMD (vBMD), which has been reported to be a good index of osteoporosis, was calculated from primary parameters using the following formula: vBMD = BMD × BV / TV.

[2] = test system: A549-Luc-BM1-implanted tibiae; experiment: CD31 staining, microvessel density in bone lesion; assay type: in vivo, BALB/c nude mice; settings: 2 weeks oral; TAS-115 100 mg/kg, cabozantinib 15, crizotinib 100, sunitinib 40 mg/kg; vs control
Description: On day 15, the mice were euthanized by cervical dislocation under isoflurane anesthesia, and their tibiae were collected. For CD31 staining, frozen sections (3 μm thick) were prepared using Kawamoto’s film method. Purified Rat Anti-Mouse CD31 (1:100, BD Pharmingen^TM) was detected using Simple Stain^TM Mouse MAX PO (Rat) (Nichirei) and 3,3’-diaminobenzidine (Dako, Glostrup, Denmark). For Ki-67 and TRAP staining, formalin-fixed paraffin-embedded sections (2 μm thick) were prepared. Anti-human Ki-67 Rabbit Monoclonal Antibody (1:50, Epitomics) was detected using the EnVisionTM^+ System (Dako). TRAP staining was performed using the TRAP/ALP Stain Kit (Wako Pure chemical Industries, Ltd.). To quantify each staining, whole slides were scanned under 20× magnification with the Aperio Scan-Scope XT Slide Scanner (Aperio Technologies, Inc., CA). To quantify CD31-positive microvessels as microvessel density (MVD, number/mm^2), four fields of tumor area per section excluding bone and necrotic tissue were analyzed by using Image-Pro Plus (Media Cybernetics, Inc., Carlsbad, CA). The mean values of the four areas were considered as the MVD of each animal. […] Ki-67-positive cells and total tumor cells were counted by using Image-Pro Plus. The Ki-67 index is expressed as a percentage (the number of Ki-67-positive tumor cells / the total number of the tumor cells × 100). The numbers of TRAP-positive osteoclasts were counted, and are expressed as the TRAP-positive osteoclast labeling index, (the number of TRAP-positive cells / the length of the boundary between tumor and trabecular bone (number/mm)). Cells that were TRAP-positive, had more than one nucleus, and were found on the surface of the bone, were identified as osteoclasts. The boundary length was calculated by Image-Pro Plus. All histopathological analyses were conducted in a blinded manner.

[3] = test system: FMS, ERK1/2 and AKT phosphorylation in MDBMs; experiment: In vitro MDBM signaling, M-CSF-stimulated FMS phosphorylation; assay type: cell-based, mouse; settings: 1 hr incubation, Western blotting
Description: (§2) For analysis of the expression and phosphorylation levels of FMS, MET and VEGFR2, MDBMs were cultured with hM-CSF (20000 U/mL) for 4 days (400000 cells/dish in Suspension Culture Dishes (Corning Inc., NY). The phosphorylation levels of FMS and downstream signaling molecules were then analyzed in these MDBMs following incubation for 1 hr with test compounds at the indicated concentration. The phosphorylation of MET or VEGFR2 was analyzed in these MDBMs following stimulation with rhHGF (100 ng/mL, 10 min) or rhVEGF (100 ng/mL, 5 min), respectively. After incubation, the MDBMs were harvested, the cells were lysed and target signaling proteins were detected by immunoblotting. For analysis of VEGFR2 and its phosphorylated form, the lysate was immunoprecipiated with an anti-VEGFR antibody prior to immunoblotting.

[4] = test system: MET phosphorylation in MDBMs; experiment: In vitro MDBM signaling, rhHGF-induced MET phosphorylation; assay type: cell-based, mouse; settings: rhHGF 100 ng/mL 10 min, Western blotting
Description: as §2

[5] = test system: VEGFR2 phosphorylation in MDBMs; experiment: In vitro MDBM signaling, rhVEGF-induced VEGFR2 phosphorylation; assay type: cell-based, mouse; settings: rhVEGF 100 ng/mL 5 min, immunoprecipitation and Western blotting
Description: as §2

Chain of MET (P08581 25-1390): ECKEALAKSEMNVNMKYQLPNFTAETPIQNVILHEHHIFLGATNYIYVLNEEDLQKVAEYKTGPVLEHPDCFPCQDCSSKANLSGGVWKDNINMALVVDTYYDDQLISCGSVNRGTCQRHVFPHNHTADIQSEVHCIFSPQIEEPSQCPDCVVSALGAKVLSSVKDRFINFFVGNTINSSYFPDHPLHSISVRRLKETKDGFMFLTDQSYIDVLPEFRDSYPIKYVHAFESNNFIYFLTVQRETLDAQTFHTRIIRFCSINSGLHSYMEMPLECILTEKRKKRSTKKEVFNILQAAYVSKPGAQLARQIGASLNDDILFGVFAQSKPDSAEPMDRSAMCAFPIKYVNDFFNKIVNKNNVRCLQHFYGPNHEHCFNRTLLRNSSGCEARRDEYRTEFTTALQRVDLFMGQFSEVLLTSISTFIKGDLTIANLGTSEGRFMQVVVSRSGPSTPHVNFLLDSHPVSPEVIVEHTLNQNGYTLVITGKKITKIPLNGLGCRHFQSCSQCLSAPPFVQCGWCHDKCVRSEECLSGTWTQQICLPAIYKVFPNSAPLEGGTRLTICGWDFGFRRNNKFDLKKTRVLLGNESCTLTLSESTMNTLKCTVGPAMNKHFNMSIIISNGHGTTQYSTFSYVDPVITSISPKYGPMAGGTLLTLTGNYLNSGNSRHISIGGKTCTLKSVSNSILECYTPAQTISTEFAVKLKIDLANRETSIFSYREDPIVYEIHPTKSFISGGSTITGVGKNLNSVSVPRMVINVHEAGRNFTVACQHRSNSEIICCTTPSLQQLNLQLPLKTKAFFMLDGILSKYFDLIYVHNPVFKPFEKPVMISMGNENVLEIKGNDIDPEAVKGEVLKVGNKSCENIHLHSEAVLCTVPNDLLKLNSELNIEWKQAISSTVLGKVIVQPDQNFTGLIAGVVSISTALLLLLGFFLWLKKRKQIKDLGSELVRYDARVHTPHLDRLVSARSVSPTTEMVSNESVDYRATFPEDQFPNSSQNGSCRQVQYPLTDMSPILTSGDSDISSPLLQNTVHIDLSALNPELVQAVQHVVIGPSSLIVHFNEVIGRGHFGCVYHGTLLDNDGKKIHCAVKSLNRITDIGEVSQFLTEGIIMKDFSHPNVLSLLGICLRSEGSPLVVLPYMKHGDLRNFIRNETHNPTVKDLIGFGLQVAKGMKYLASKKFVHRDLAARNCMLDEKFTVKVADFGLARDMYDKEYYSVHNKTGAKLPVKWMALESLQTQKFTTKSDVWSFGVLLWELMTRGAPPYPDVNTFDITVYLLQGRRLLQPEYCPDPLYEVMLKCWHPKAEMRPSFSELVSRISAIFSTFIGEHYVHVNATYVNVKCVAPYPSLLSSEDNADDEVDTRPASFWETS

- IC50 (MET): 32 nM
- IC50 (VEGFR2): 30 nM
- GI50 (A549-Luc-BM1 cells): 11200 nM
Structure (SMILES): CNC(=O)c1cc2c(Oc3ccc(NC(=S)NC(=O)Cc4ccccc4)cc3F)ccnc2cc1OC [TAS-115, 4-[2-fluoro-4-[[[(2-phenylacetyl)amino]thioxomethyl]amino]-phenoxy] -7-methoxy-N-methyl-6-quinolinecarboxamide]
- A549-Luc-BM1-induced changes in bone parameters (BV, TV, BMD, vBMD) [1]: significantly suppressed all of the changes
- microvessel density (MVD) within the tumor area in the bone lesion [2]: significantly reduced
- concentration markedly inhibiting M-CSF-stimulated phosphorylation of FMS, ERK1/2 and AKT [3]: greater than 0.03 μM
- concentration inhibiting the phosphorylation of MET [4]: greater than 0.03 μM
- concentration inhibiting the phosphorylation of VEGFR2 [5]: greater than 0.03 μM
